For series [1], the system named is 293FT cells. The series is described as follows: cells. It counts as cell-based, Human. To be noted: for pIC50: read-out: 293FT Cell Viability IC50; for cell viability IC50: control validation, known inhibitor.
The subject of series [2] is HPV16-PsV. Description: organism not typed. It counts as cell-based, HPV-16. To be noted: for pIC50: read-out: HPV Infection IC50; for reduction of HPV-16PsV infection, fold change compared with the control of cells only: 30 μM, secondary stock.
Series [3] is described as follows: in vitro. Format: cell-based, Human. To be noted: human.
Series [4] concerns SV40 promoter. The series is described as follows: SV40 promoter transfection in 293FT cells. To be noted: 30.0 μM, vs SV40 with no drug; data not shown. It counts as cell-based.

pIC50: −log10 of the molar value. Read-outs that look alike come from different tables or passages of the source. Some results are limits rather than exact numbers.

For orientation: pIC50 means −log10 of the IC50, conventionally taken in molar units. In the case of `Nc1nc(Cl)nc2c1ncn2[C@@H]1O[C@H](CO)[C@@H](O)[C@@H]1F` [Clofarabine], the negative-log IC50 (pIC50) in series [1] (Homo sapiens) was 5.70.
`O=c1[nH]c(=O)n([C@H]2C[C@H](O)[C@@H](CO)O2)cc1F` [Floxuridine]: in series [2] (72 h), the pIC50 was above 8.15.
With Bleomycin, the pIC50 in series [2] is above 8.15; in series [1], 5.70.
The corresponding values for `O=C1[O][Pt]2([NH][C@@H]3CCCC[C@H]3[NH]2)[O]C1=O` [Oxaliplatin] are 6.00 and 5.10.
On to `COc1cc([C@@H]2c3cc4c(cc3[C@@H](O[C@@H]3O[C@@H]5CO[C@@H](C)O[C@H]5[C@H](O)[C@H]3O)[C@H]3COC(=O)[C@H]23)OCO4)cc(OC)c1O` [Etoposide], for which the pIC50 in series [2] (72 h) was 8.00; in series [1] (Homo sapiens), 6.00.
For `CNCCC=C1c2ccccc2CCc2ccccc21` [Nortriptyline] the same measures were 5.22 and below 4.82.
Regarding heparin, the “inhibition of HPV 16-PsV infection IC50” value in series [2] (control validation, known inhibitor) is 24 µg/mL. For the same compound, the “cell viability IC50” value in series [1] was 83.0 µg/mL.
As for Carrageenan, in series [1], the “cell viability IC50” value is at least 2 µg/mL.
One may read the viability as the share of living cells, or the viability signal relative to a control. Low values mean more harm to the cells, high ones less harm to the cells. With `N=C(N)c1ccc(OCCCCCOc2ccc(C(=N)N)cc2)cc1` [Pentamidine], in series [2], the “reduction of HPV-16PsV infection, fold change compared with the control of cells only” value is “twofold”. Moreover, the pIC50 is 5.70 in series [2] (72 h) and 5.05 in series [1] (Homo sapiens). The cellular cytotoxicity in series [1] (human) is reported as below 10.0%. Further, in series [3], the viability at 30 µM was above 95%. In addition, in series [4], the “effect on SV40 promoter activity” value is “did not significantly affect”.
As to `Nc1nc(Cl)nc2c1ncn2[C@H]1C[C@H](O)[C@@H](CO)O1` [Cladribine], the pIC50 in series [1] (Homo sapiens) was 5.40.
For `C[C@H]1O[C@@H](n2cc(F)c(=O)[nH]c2=O)[C@H](O)[C@@H]1O` [Doxifluridine], the pIC50 in series [2] (72 h) was 5.30; in series [1] (Homo sapiens), 4.80.
As for `O=c1[nH]cc(F)c(=O)[nH]1` [Fluorouracil], the values for the pIC50 in series [2] (72 h) and in series [1] (Homo sapiens) were 6.00 and 4.89, respectively.
In the case of `Cc1cc2nc3ccc(N(C)C)cc3[s+]c2cc1N` [Tolonium chloride], the pIC50 was 5.70 in series [2] (72 h) and 5.40 in series [1] (Homo sapiens).
For the compound `Cc1cc(C2CCCCC2)n(O)c(=O)c1` [Ciclopirox], the results for the pIC50 in series [2] (72 h) and in series [1] (Homo sapiens) were 5.70 and 5.10, respectively.
In the case of `N=c1ccn2c(n1)O[C@H]1[C@H](O)[C@@H](CO)O[C@H]12` [Ancitabine], the pIC50 in series [2] (72 h) was above 8.15; in series [1] (Homo sapiens), 5.30.
Regarding `COc1cc(NS(C)(=O)=O)ccc1Nc1c2ccccc2nc2ccccc12` [Amsacrine], the pIC50 is 8.00 in series [2] (72 h) and 6.00 in series [1] (Homo sapiens).
For `O=[N+]([O-])C(Br)(CO)CO` [Bronopol], the pIC50 in series [2] (72 h) was 5.52; in series [1] (Homo sapiens), 5.15.
In the case of `O=c1[nH]c(=O)n([C@H]2C[C@H](O)[C@@H](CO)O2)cc1F` [Fluorodeoxyuridine], the results for the pIC50 in series [2] and in series [1] were 5.40 and 4.89, respectively.
For the compound `Cc1nccn1CC1CCc2c(c3ccccc3n2C)C1=O` (centres unmarked) [Ondansetron], in series [2] (72 h), the pIC50 was 5.30.
Turning to `CC[C@@]1(O)C(=O)OCc2c1cc1n(c2=O)Cc2cc3c([N+](=O)[O-])cccc3nc2-1` [Rubitecan], the pIC50 in series [2] (72 h) was 6.10.
Take `O=C1C=C2C=C[C@@H]3C[C@@]2(O1)[C@H]1CCCCN31` [Securinine]: the “reduction of HPV-16PsV infection, fold change compared with the control of cells only” value in series [2] came out at 1.5 fold. Moreover, the values for the pIC50 in series [2] (72 h) and in series [1] (Homo sapiens) were 5.70 and 5.40, respectively. Besides, the cellular cytotoxicity in series [1] (lead drugs, triplicate) was below 10.0%. This compound also came in with a viability at 30 µM in series [3] above 95%. For the same compound, in series [4], the “effect on SV40 promoter activity” value is “did not significantly affect”.
